# Assay results taken from PubChem BioAssay (NCI).
#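 Abbreviation: GI50, concentration required for 50% inhibition of growth. TGI: concentration producing complete growth inhibition.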
# Legend:
# Experiment in all cases: NCI anticancer screen, dose series, 384-well format
# T-47D breast = system: T-47D breast
# OVCAR-5 ovarian = system: OVCAR-5 ovarian
# SF-268 CNS = system: SF-268 CNS
# MDA-MB-468 breast = system: MDA-MB-468 breast
# TK-10 renal = system: TK-10 renal
# HS 578T breast = system: HS 578T breast
# SN12C renal = system: SN12C renal
# DU-145 prostate = system: DU-145 prostate
# SNB-19 CNS = system: SNB-19 CNS
# CAKI-1 renal = system: CAKI-1 renal
# PC-3 prostate = system: PC-3 prostate
# LOX IMVI melanoma = system: LOX IMVI melanoma
# NCI-H226 lung = system: NCI-H226 lung
# HT29 colon = system: HT29 colon
# MDA-MB-231 breast = system: MDA-MB-231 breast
# NCI-H322M lung = system: NCI-H322M lung
# RPMI-8226 leukemia = system: RPMI-8226 leukemia
# ACHN renal = system: ACHN renal
# U251 glioblastoma = system: U251 glioblastoma
# SW-620 colon = system: SW-620 colon
# A498 renal = system: A498 renal
# SK-MEL-5 melanoma = system: SK-MEL-5 melanoma
# K-562 leukemia = system: K-562 leukemia
# MALME-3M melanoma = system: MALME-3M melanoma
# HCC-2998 colon = system: HCC-2998 colon
# SK-MEL-28 melanoma = system: SK-MEL-28 melanoma
# HOP-92 NSCLC = system: HOP-92 NSCLC
# RXF 393 renal = system: RXF 393 renal
# CCRF-CEM leukemia = system: CCRF-CEM leukemia
# COLO 205 colon = system: COLO 205 colon
# UACC-257 melanoma = system: UACC-257 melanoma
# OVCAR-8 ovarian = system: OVCAR-8 ovarian
# OVCAR-3 ovarian = system: OVCAR-3 ovarian
# SF-295 CNS = system: SF-295 CNS
# SNB-75 CNS = system: SNB-75 CNS
# A549 NSCLC = system: A549 NSCLC
# HCT-15 colon = system: HCT-15 colon
# NCI/ADR-RES ovarian = system: NCI/ADR-RES ovarian
# MOLT-4 leukemia = system: MOLT-4 leukemia
# NCI-H23 lung = system: NCI-H23 lung
# MCF7 breast = system: MCF7 breast
# BT-549 breast = system: BT-549 breast
# MDA-MB-435 melanoma = system: MDA-MB-435 melanoma
# UACC-62 melanoma = system: UACC-62 melanoma
# OVCAR-4 ovarian = system: OVCAR-4 ovarian
# SR leukemia = system: SR leukemia
# NCI-H460 NSCLC = system: NCI-H460 NSCLC
# UO-31 renal = system: UO-31 renal
# HL-60(TB) leukemia = system: HL-60(TB) leukemia
# HOP-62 NSCLC = system: HOP-62 NSCLC
# NCI-H522 lung = system: NCI-H522 lung
# IGROV1 ovarian = system: IGROV1 ovarian
# 786-0 renal = system: 786-0 renal
# KM12 colon = system: KM12 colon
# SF-539 CNS = system: SF-539 CNS
# SK-OV-3 ovarian = system: SK-OV-3 ovarian
# EKVX NSCLC = system: EKVX NSCLC
# M14 melanoma = system: M14 melanoma
compound,measurement,setting,value
CNc1nc(-c2ccc3c(N)n[nH]c3c2)cc(N2C[C@@H](C(=O)NC3CCCCC3)CC[C@H]2C)n1,GI50,T-47D breast,0.0787 µM
same,TGI,T-47D breast,1.58 µM
same,GI50,OVCAR-5 ovarian,1.64 µM
same,TGI,OVCAR-5 ovarian,6.52 µM
same,GI50,SF-268 CNS,5.21 µM
same,TGI,SF-268 CNS,19.3 µM
same,GI50,MDA-MB-468 breast,0.213 µM
same,TGI,MDA-MB-468 breast,0.997 µM
same,GI50,TK-10 renal,3.15 µM
same,TGI,TK-10 renal,16.4 µM
same,GI50,HS 578T breast,1.33 µM
same,TGI,HS 578T breast,6.42 µM
same,GI50,SN12C renal,1.9 µM
same,TGI,SN12C renal,15.5 µM
same,GI50,DU-145 prostate,10.3 µM
same,TGI,DU-145 prostate,22.1 µM
same,GI50,SNB-19 CNS,7.1 µM
same,TGI,SNB-19 CNS,20 µM
same,GI50,CAKI-1 renal,1.61 µM
same,TGI,CAKI-1 renal,15.2 µM
same,GI50,PC-3 prostate,0.877 µM
same,TGI,PC-3 prostate,14.7 µM
same,GI50,LOX IMVI melanoma,4.8 µM
same,TGI,LOX IMVI melanoma,17.4 µM
same,GI50,NCI-H226 lung,2.15 µM
same,TGI,NCI-H226 lung,14 µM
same,GI50,HT29 colon,3.45 µM
same,TGI,HT29 colon,18 µM
same,GI50,MDA-MB-231 breast,1.91 µM
same,TGI,MDA-MB-231 breast,16.7 µM
same,GI50,NCI-H322M lung,7.92 µM
same,TGI,NCI-H322M lung,20.7 µM
same,GI50,RPMI-8226 leukemia,0.471 µM
same,TGI,RPMI-8226 leukemia,3.49 µM
same,GI50,ACHN renal,4.99 µM
same,TGI,ACHN renal,20.8 µM
same,GI50,U251 glioblastoma,10.4 µM
same,TGI,U251 glioblastoma,22.4 µM
same,GI50,SW-620 colon,11.6 µM
same,TGI,SW-620 colon,24 µM
same,GI50,A498 renal,0.666 µM
same,TGI,A498 renal,7.16 µM
same,GI50,SK-MEL-5 melanoma,0.798 µM
same,TGI,SK-MEL-5 melanoma,2.81 µM
same,GI50,K-562 leukemia,4.88 µM
same,TGI,K-562 leukemia,17.4 µM
same,GI50,MALME-3M melanoma,0.157 µM
same,TGI,MALME-3M melanoma,2.01 µM
same,GI50,HCC-2998 colon,2.73 µM
same,TGI,HCC-2998 colon,13.9 µM
same,GI50,SK-MEL-28 melanoma,1.54 µM
same,TGI,SK-MEL-28 melanoma,12.5 µM
same,GI50,HOP-92 NSCLC,0.99 µM
same,TGI,HOP-92 NSCLC,6.78 µM
same,GI50,RXF 393 renal,2.97 µM
same,TGI,RXF 393 renal,13 µM
same,GI50,CCRF-CEM leukemia,1.04 µM
same,TGI,CCRF-CEM leukemia,3.12 µM
same,GI50,COLO 205 colon,1.56 µM
same,TGI,COLO 205 colon,11 µM
same,GI50,UACC-257 melanoma,1.62 µM
same,TGI,UACC-257 melanoma,10.5 µM
same,GI50,OVCAR-8 ovarian,9.7 µM
same,TGI,OVCAR-8 ovarian,21.6 µM
same,GI50,OVCAR-3 ovarian,3.45 µM
same,TGI,OVCAR-3 ovarian,16.7 µM
same,GI50,SF-295 CNS,4.81 µM
same,TGI,SF-295 CNS,18.3 µM
same,GI50,SNB-75 CNS,1.19 µM
same,TGI,SNB-75 CNS,13.4 µM
same,GI50,A549 NSCLC,3.78 µM
same,TGI,A549 NSCLC,16.2 µM
same,GI50,HCT-15 colon,2.81 µM
same,TGI,HCT-15 colon,13.9 µM
same,GI50,NCI/ADR-RES ovarian,13.5 µM
same,TGI,NCI/ADR-RES ovarian,26.4 µM
same,GI50,MOLT-4 leukemia,0.545 µM
same,TGI,MOLT-4 leukemia,1.9 µM
same,GI50,NCI-H23 lung,1.86 µM
same,TGI,NCI-H23 lung,13.2 µM
same,GI50,MCF7 breast,0.417 µM
same,TGI,MCF7 breast,2.95 µM
same,GI50,BT-549 breast,1.72 µM
same,TGI,BT-549 breast,13.9 µM
same,GI50,MDA-MB-435 melanoma,3.29 µM
same,TGI,MDA-MB-435 melanoma,16.9 µM
same,GI50,UACC-62 melanoma,1.93 µM
same,TGI,UACC-62 melanoma,13.5 µM
same,GI50,OVCAR-4 ovarian,2.58 µM
same,TGI,OVCAR-4 ovarian,13.3 µM
same,GI50,SR leukemia,0.475 µM
same,TGI,SR leukemia,8.48 µM
same,GI50,NCI-H460 NSCLC,1.6 µM
same,TGI,NCI-H460 NSCLC,13.9 µM
same,GI50,UO-31 renal,5.39 µM
same,TGI,UO-31 renal,19.4 µM
same,GI50,HL-60(TB) leukemia,1.26 µM
same,TGI,HL-60(TB) leukemia,2.85 µM
same,GI50,HOP-62 NSCLC,7.05 µM
same,TGI,HOP-62 NSCLC,20.3 µM
same,GI50,NCI-H522 lung,6.52 µM
same,TGI,NCI-H522 lung,19.9 µM
same,GI50,IGROV1 ovarian,2.66 µM
same,TGI,IGROV1 ovarian,10.1 µM
same,GI50,786-0 renal,3.25 µM
same,TGI,786-0 renal,13.8 µM
same,GI50,KM12 colon,10.1 µM
same,TGI,KM12 colon,21.8 µM
same,GI50,SF-539 CNS,3.52 µM
same,TGI,SF-539 CNS,15.8 µM
same,GI50,SK-OV-3 ovarian,1.68 µM
same,TGI,SK-OV-3 ovarian,12.1 µM
same,GI50,EKVX NSCLC,2.17 µM
same,TGI,EKVX NSCLC,15 µM
same,GI50,M14 melanoma,1.7 µM
same,TGI,M14 melanoma,17.8 µM
